# Experimental data from article PMC13203959, “New inhibitors of the Pseudomonas aeruginosa enzyme, PqsE, and methods assessing their potential to induce a conformational change via active site binding” (mSphere, 2026).
# Columns and labels:
# PqsE(S285W) [1] = molecular target: T1, PqsE(S285W) (Pseudomonas aeruginosa, UniProt P20581, S285W); type: binding; conditions: compound 100 µM
# T1 construct: 6xHis (N); made in house; host or cells: E. coli BL21 (DE3)
# PqsE(S285A) [2] = molecular target: T2, PqsE(S285A) (Pseudomonas aeruginosa, UniProt P20581, S285A); assay: Differential scanning fluorimetry (DSF), PqsE(S285A); type: binding; conditions: compound 100 µM
# PqsE(WT) [3] = molecular target: T3, PqsE(WT) (Pseudomonas aeruginosa, UniProt P20581); assay: Esterase assay: inhibition of PqsE-catalyzed MU-butyrate hydrolysis; type: biochemical; conditions: % inhibition
# T3 construct: 6xHis (N); made in house; host or cells: E. coli BL21 (DE3)
# Experimental: Purified PqsE, diluted in assay buffer (50 mM Tricine, 0.01% Triton X-100, pH 8.5), was added to the wells of an opaque 384-well plate at a final concentration of 125 nM. Test molecules were diluted in DMSO and added to the wells at the indicated concentrations (5% DMSO final). The plate was then incubated at room temperature for 5 min. MU-butyrate in assay buffer was added to the plate at a final concentration of 2 µM. The plate was incubated at room temperature for 20 min prior to measuring fluorescence (excitation: 360 nm and emission: 450 nm) to monitor the hydrolysis of MU-butyrate. All data were plotted in the Prism 9.0 program, and IC50 values were calculated from inhibition curves fit to the data.
# PqsE(S285A) [4] = molecular target: T2, PqsE(S285A); assay: Esterase assay: inhibition of MU-butyrate hydrolysis by PqsE(S285A); type: biochemical
# [5] = system: P. aeruginosa PA14 pqsE(S285W) mutant strain; type: cell-based; conditions: 50 or 100 µM
# PqsE(E182W) = molecular target: T4, PqsE(E182W) (Pseudomonas aeruginosa, UniProt P20581, E182W); type: binding; conditions: PqsE(E182W) 2 µM, compound 100 µM
# T4 construct: made in house
# [6] = system: wild-type P. aeruginosa PA14; assay: Pyocyanin assay, wild-type strain; type: cell-based, Pseudomonas aeruginosa; conditions: pqsE(WT) strain, up to 100 µM
# Experimental: P. aeruginosa PA14 cultures were grown overnight in LB at 37°C with shaking. The saturated cultures were then diluted 1:1,000 into fresh LB containing test molecules in DMSO (final 1% DMSO). Cultures then grew for ~17 h at 37°C with shaking at 200 rpm. Next, 1 mL of each culture was collected and pelleted by centrifugation at 13,000 rpm for 3 min. The supernatant was carefully transferred to a cuvette, and the OD695 was measured in a Genesys 20 ThermoSpectronic spectrophotometer. The cell pellet was resuspended in 1 mL of PBS and then transferred into the wells of a clear 96-well plate at 100 µL per well. The OD600 was measured to assess cell density. Pyocyanin production (OD695) of the supernatants was normalized to cell density (OD600 of the resuspended cell pellets).
# PqsE(S285Y) = molecular target: T5, PqsE(S285Y) (Pseudomonas aeruginosa, UniProt P20581, S285Y); type: binding; conditions: PqsE(S285Y) 2 µM, compound 100 µM
# T5 construct: made in house
# PqsE(E280A) = molecular target: T6, PqsE(E280A) (Pseudomonas aeruginosa, UniProt P20581, E280A); type: binding; conditions: PqsE(E280A) 2 µM, compound 100 µM
# T6 construct: made in house
# PqsE-RhlR interaction = molecular target: T7, PqsE-RhlR interaction (Pseudomonas aeruginosa, UniProt P20581); assay: PqsE-RhlR in vitro pull-down; type: binding; conditions: up to 100 µM, 1 µM 6xHis-PqsE(WT), RhlR-containing lysate
# T7 construct: made in house; host or cells: Escherichia coli (PqsE purified; RhlR as crude lysate from a pET23a-rhlR strain grown with mBTL)
# Experimental: RhlR was expressed following a previously established method ([18], [19]). Briefly, lysate was prepared from cultures of an Escherichia coli strain carrying rhlR on a pET23a plasmid that had been treated with the RhlR-solubilizing ligand, mBTL ([33]). The pull-down assay was conducted following a previously established method with some modifications ([18]). Briefly, purified 6xHis-PqsE(WT) was incubated with test molecules at the specified concentrations for 10 min at room temperature. The treated PqsE was then added to 100 µL of RhlR-containing lysate in lysis buffer (50 mM Tris-HCl, 150 mM NaCl, 20 mM imidazole, pH = 8.0) to a total final volume of 150 µL and a final PqsE concentration of 1 µM (final 0.6% DMSO). The mixtures were incubated at 4°C with rotation for 30 min before MagneHis Ni resin (Promega) was added (10 µL of settle volume), and incubation at 4°C with rotation was continued for 1 h. The Ni resin was then washed three times with lysis buffer, and then PqsE complexes were eluted with 50 µL elution buffer (50 mM Tris-HCl, 150 mM NaCl, 500 mM imidazole, pH = 8.0). The eluted proteins were then denatured in Laemmli sample buffer at 95°C and analyzed by SDS-PAGE.
# PqsE(E182A) = molecular target: T8, PqsE(E182A) (Pseudomonas aeruginosa, UniProt P20581, E182A); type: binding; conditions: PqsE(E182A) 2 µM, compound 100 µM
# T8 construct: made in house
# PqsE(S285D) = molecular target: T9, PqsE(S285D) (Pseudomonas aeruginosa, UniProt P20581, S285D); type: binding; conditions: PqsE(S285D) 2 µM, compound 100 µM
# T9 construct: made in house
# PqsE(S285W) [7] = molecular target: T1, PqsE(S285W); type: biochemical; conditions: esterase assay
# PqsE(E182W/E280A) = molecular target: T10, PqsE(E182W/E280A) (Pseudomonas aeruginosa, UniProt P20581, E182W/E280A); type: binding; conditions: PqsE(E182W/E280A) 2 µM, compound 100 µM
# T10 construct: made in house
# PqsE(WT) [8] = molecular target: T3, PqsE(WT); assay: Differential scanning fluorimetry (DSF), PqsE(WT); type: binding; conditions: PqsE(WT) 2 µM, compound 100 µM
# Experimental: Compounds HJ1, HJ2, and HJ5 were tested for the ability to bind and shift the Tm of purified PqsE and PqsE variants using DSF as described previously with some modifications ([18]). Briefly, compounds in DMSO were diluted in assay buffer (50 mM Tris, 150 mM NaCl, 200 µM MnCl2, pH 8) to achieve a final concentration of 100 µM (1% DMSO). Compound solutions were transferred to the wells of a 96-well PCR plate (ThermoFisher), and control wells were prepared with 1% DMSO (negative control). SYPRO Orange Dye and PqsE solutions were diluted in assay buffer and subsequently added to the wells to reach final concentrations of 7× SYPRO Orange and 2 µM PqsE. Final volume in each well was 80 µL. Plates were sealed with transparent optical adhesive covers (ThermoFisher) prior to measurement of SYPRO Orange fluorescence (ex, 580 nm; em, 623 nm) in a QuantStudio 3 Real-Time PCR system (ThermoFisher) over an increasing temperature gradient from 25 to 90°C (temperature increased at a rate of 0.1°C/s). Tm was determined from first derivative plots of the raw fluorescence curves using the Prism 9.0 software.
smiles,measurement,setting,value
CC(C)(C)OC(=O)Nc1ccc(NC(=O)c2cccc3cn[nH]c23)cc1 [HJ1],Tm of PqsE-HJ complex,PqsE(S285W) [1]; PqsE(S285W) 2 µM,66.8 °C
same,"∆Tm, shift in melting temperature vs DMSO-treated control",PqsE(S285W) [1]; PqsE(S285W) 2 µM,0.07 °C
same,significance of shift in Tm compared to HJ2,PqsE(S285W) [1]; PqsE(S285W),neither HJ1 nor HJ5 induced significant shifts in Tm
same,Tm of PqsE-HJ complex,PqsE(S285A) [2]; PqsE(S285A) 2 µM,68.1 °C
same,"∆Tm, shift in melting temperature vs DMSO-treated control",PqsE(S285A) [2]; PqsE(S285A) 2 µM,0.81 °C
same,significance of shift in Tm compared to HJ2,PqsE(S285A) [2]; PqsE(S285A),neither HJ1 nor HJ5 induced significant shifts in Tm
same,maximum level of inhibition of PqsE(WT),PqsE(WT) [3],100%
same,increase of IC50 against PqsE(S285A) variant versus PqsE(WT),PqsE(S285A) [4]; 20 min,approximately 10 fold
same,maximum level of inhibition of PqsE(S285A),PqsE(S285A) [4]; % inhibition,~ 70%
same,effect on pyocyanin production,[5],no appreciable effect
same,Tm of PqsE-HJ complex,PqsE(E182W),74.4 °C
same,"∆Tm, shift in melting temperature vs DMSO-treated control",PqsE(E182W),0.98 °C
same,effect on pyocyanin production,[6],no appreciable effect
same,Tm of PqsE-HJ complex,PqsE(S285Y),68.3 °C
same,"∆Tm, shift in melting temperature vs DMSO-treated control",PqsE(S285Y),0.54 °C
same,Tm of PqsE-HJ complex,PqsE(E280A),68.8 °C
same,"∆Tm, shift in melting temperature vs DMSO-treated control",PqsE(E280A),2.28 °C
same,effect on PqsE-RhlR complex formation,PqsE-RhlR interaction,neither HJ1 nor HJ5 showed any effect on complex formation
same,Tm of PqsE-HJ complex,PqsE(E182A),70.1 °C
same,"∆Tm, shift in melting temperature vs DMSO-treated control",PqsE(E182A),0.50 °C
same,Tm of PqsE-HJ complex,PqsE(S285D),67.2 °C
same,"∆Tm, shift in melting temperature vs DMSO-treated control",PqsE(S285D),0.35 °C
same,effect of S285W substitution on binding/inhibition,PqsE(S285W) [7],completely abrogated binding
same,Tm of PqsE-HJ complex,PqsE(E182W/E280A),72.4 °C
same,"∆Tm, shift in melting temperature vs DMSO-treated control",PqsE(E182W/E280A),2.58 °C
same,Tm of PqsE-HJ complex,PqsE(WT) [8],70.5 °C
same,"∆Tm, shift in melting temperature vs DMSO-treated control",PqsE(WT) [8],3.56 °C
